Like-named read-outs stand apart in the source and are kept apart here.

Data set [1] is described as follows: Hygroscopicity (water uptake) of crystalline aripiprazole forms. It counts as physicochemical. Particulars: small particle population (d90 8-50 microns), unmilled.
The conditions of data set [2]: cited from earlier work.

For the compound `O=C1CCc2ccc(OCCCCN3CCN(c4cccc(Cl)c4Cl)CC3)cc2N1` [aripiprazole Type II, 7-[4-[4-(2,3-dichlorophenyl)-1-piperazinyl]butoxy]-3,4-dihydrocarbostyril], in data set [1], the hygroscopicity result is reported as “not significantly hygroscopic and/or is non-hygroscopic”.

For `O=C1CCc2ccc(OCCCCN3CCN(c4cccc(Cl)c4Cl)CC3)cc2N1` [Type I aripiprazole, 7-[4-[4-(2,3-dichlorophenyl)-1-piperazinyl]butoxy]-3,4-dihydrocarbostyril], the hygroscopicity entry in data set [2] (as taught by WO 03/26659) is on record as “significantly hygroscopic”. On to `O=C1CCc2ccc(OCCCCN3CCN(c4cccc(Cl)c4Cl)CC3)cc2N1` [Anhydrous Form B, 7-[4-[4-(2,3-dichlorophenyl)-1-piperazinyl]butoxy]-3,4-dihydrocarbostyril], for which the “water uptake (hygroscopicity)” value in data set [2] (in 24 hours, per WO 03/26659) is on record as “less than 0.4%”.

The record behind these values is patent publication US8529949B2, “Pharmaceutical tablets of crystalline type II aripiprazole” (Synthon BV, priority 2005, dated 2013).
